Source: US5422352A, “Slimming pharmaceutical composition” (Nycomed Dak A/S, priority 1989, dated 1995)

Tests used:
Format in all cases: in vivo, human
[1] = adverse drug reactions in obese patients, 24 weeks (Example 5)
From the text: 14 days after discontinuation of the treatment, a psychiatrist recorded any inconveniences the patient might have had during this period and physical and psychological symptoms were registered.

[2] = laboratory methods in healthy volunteers: serum glucose, NEFA, glycerol (Example 2); details: oral
Procedure: Through the indwelling antecubital cannula, blood was sampled without stasis in iced syringes. The blood samples were then centrifuged at 4° C. and nonesterified fatty acids (NEFA) were immediately extracted from the blood samples and later determined as described in (22). The concentration of glucose in plasma was determined using the glucose oxidase method (23), the concentration of glycerol in plasma was determined as described by Laurell and Tibbling (24), the concentration of lactate in plasma was described using the method described by Noll (25), and the concentration of triglyceride in plasma was determined as described by Giegel (26). Blood samples for the determination of methylxanthine metabolites was collected in tubes containing reduced glutathione and ethylene glycol-bis(β-aminoethyl)-N,N,N',N'-tetraacetic acid (EGTA). Samples were immediately centrifuged and the plasma was stored at -40° C. until the determination of methylxanthines was performed (see Example 4). Immunoreactive insulin, pancreatic glucagon and C-peptide concentrations were measured in the plasma samples using radioimmunoassay kits purchased from Novo, Copenhagen. All plasma aliquots for determination of pancreatic hormones and methylxanthine metabolites were coded and analyzed in a random order to avoid any systematic error due to the order of analysis. The concentrations of sodium and potassium in the plasma samples were determined by flame spectrophotometry.

[3] = weight reducing effect in obese patients, 24 weeks, double blind (Example 5)
Procedure: The study was designed as a double blind, randomised, parallel study with 4 treatment groups in a 2×2 factorial design.
All patients were treated with the trial medication and prescribed a 4.2 MJ/day diet for 24 weeks.
B. Ephedrine group: Ephedrine tablets containing 20 mg ephedrine hydrochloride.
C. Caffeine group: Caffeine tablets containing 200 mg caffeine.
The patients were prescribed 1 tablet 3 times daily one hour before meals together with a 4.2 MJ/day diet consisting of NUPO® protein nutrition powder (33) (1.6 MJ/day) and free additional choice of food (2.6 MJ/day) for 24 weeks.
The patients were weighed on a decimal scale by dietitians at each visit. A Seca electronic scale (model 707) was used. The weighing limit was 200 kg, with 100 g graduations. The scale was calibrated every week.
The statistical analysis of weight loss was based on the logarithm of the initial body weight minus logarithm of the body weight at the actual visit.
As the data was logarithmically transformed as expressed above, a negative value corresponds to a supra-additive effect. Nil corresponds to additive effect and a positive value corresponds to a sub-additive effect.

[4] = blood pressure and heart rate in obese patients, 24 weeks (Example 5); details: week 24
Procedure: Blood pressure was measured with a Trimline Sphygmomanometer (PyMaH) by the investigator every 4 weeks. After at least 10 minutes rest, the measurements were carried out in the right arm of the patient a.m. Riva-Rocci with the patient being positioned in a sitting position. A cuff of 14 to 16 cm width was employed. […] The diastolic blood pressure was determined at the manometer pressure when the Korotkoff sound quality changes from tapping to muffled.
The heart rate was determined by palpation of the peripheral heart rate in the right radial artery.
(§1) The mean difference of blood pressure, heart rate and laboratory data from the initial values (week 0) at week 12 and at week 24 was compared to initial values for each treatment group by Students' one sample t-test (SAS). Comparison of the treatment groups at a particular visit was done by one-way analysis of variance (SAS.GLM). The difference from initial values was used in order to prevent chance events influencing the results. Patients with high values, for instance, who dropped out would thus influence the mean value at the next control, without a real difference being present.

[5] = safety evaluation in healthy volunteers: side effects, blood pressure, heart rate (Example 2); details: 400 mg caffeine
Procedure: Arterial blood pressure was measured in the right arm by a sphygmomanometer a.m. Riva-Rocci, and heart rate was determined by palpation of the peripheral heart rate in the ipsilateral radial artery. These measurements were performed after each sampling of blood.
A "Trimline" apparatus manufactured by PyMaH (Copenhagen) was used to measure the arterial blood pressure. A cuff 12-14 cm in width was employed. […] The diastolic blood pressure was determined as the manometer pressure when the Korotkoff sound quality changes from tapping to muffled.
At the end of each study comprising oral administration of the actual test substance, subjective feelings of side-effects were assessed by questioning the experimental subjects.

[6] = laboratory methods: fasting serum glucose, triglycerides, cholesterol in obese patients (Example 5)
Procedure: Blood and urine samples for laboratory tests were taken before entry, and after 12 and 24 weeks.
Metabolic factors: In order to evaluate changes in the glucose and lipid metabolism of the patients during the study, triglyceride acid (TGA), cholesterol and fasting glucose were analyzed.
All clinical-chemical analyses apart from TGA and test strips for urine, were carried out at Department of Clinical Chemistry, Hvidovre Hospital, in accordance with their routine methods and assays, including the department's running quality control. The methods and the assays are routine procedures and are well-documented (7,40-48). TGA was analyzed and test strips for urine assessed at the Department of Internal Medicine, Division of Endocrinology, Hvidovre Hospital's own laboratory following the same routine procedures as above (26).
as §1

[7] = week 12, difference from initial
[8] = week 24, difference from initial

## Cn1c(=O)c2c(ncn2C)n(C)c1=O [Caffeine, caffeine]
[1]; 24 weeks
  Patients complaining of adverse drug reactions: 16 patients
  Patients withdrawn due to adverse drug reactions: 2
[1]; human, in vivo
  adverse reactions / withdrawal symptoms (in words): Headache was reported by 27 patients, especially patients from the caffeine group
[2]
  serum nonesterified fatty acids and glycerol (in words): increased the concentrations of NEFA and glycerol in the serum
[2]; vs placebo
  serum glucose (in words): hyperglycemic effect
[3]; 24 weeks
  Average weight loss of the whole group: 11.7 kg
[3]; 24 weeks, excluded from analysis
  Weight loss of one strongly deviant patient: 42.6 kg
[3]; week 4, 1 tablet 3 times daily, 4.2 MJ/day diet
  Relative body weight: 95.5%
[3]; week 8
  Relative body weight: 93.0%
[3]; week 12
  Relative body weight: 90.4%
[3]; week 16
  Relative body weight: 89.3%
[3]; week 20
  Relative body weight: 88.0%
[3]; week 24
  Relative body weight: 87.6%
[4]
  Average diastolic blood pressure decrease: 8.9 mmHg
  Average diastolic blood pressure decrease, % of initial value: 11.0%
  Average systolic blood pressure decrease: 9.3 mmHg
  Average systolic blood pressure decrease, % of initial value: 7.3%
[4]; negative = increase
  Average heart rate decrease: 5.7 BPM
  Average heart rate decrease, % of initial value: 7.3%
[5]
  side effects (in words): The incidence of side effects after administration of the active compounds and placebo, respectively, was not significant, except for caffeine 400 mg (p<0.01)
[6]; [7]
  Mean difference in fasting serum glucose: -0.18 mmol/L
  Mean difference in serum triglycerides: -0.11 mmol/L
[6]; [8]
  Mean difference in fasting serum cholesterol: -0.28 mmol/L
  Mean difference in fasting serum glucose: -0.42 mmol/L
  Mean difference in serum triglycerides: -0.32 mmol/L
